Results reported in US9340590B2 (priority 2011, dated 2016).
Positions of bridges follow the written chain, without caps; N, C: chain ends. Non-standard residues stand in square brackets, D forms with d. Residues, ends and D or L forms follow the SMILES beside them. Cit = NC(=O)NCCC[C@H](N)C(=O)O; Lys(Me) = CNCCCC[C@H](N)C(=O)O

How the values were obtained:
Assay in all cases: cell-based
hNav1.7 = hNav1.7 (Homo sapiens, UniProt Q15858); format: cell-based; details: IonWorks Quattro, use-dependent block, hNav1.7; read-out: IWQ Use Nav1.7
Sequence of hNav1.7 (Q15858 whole entry, looked up): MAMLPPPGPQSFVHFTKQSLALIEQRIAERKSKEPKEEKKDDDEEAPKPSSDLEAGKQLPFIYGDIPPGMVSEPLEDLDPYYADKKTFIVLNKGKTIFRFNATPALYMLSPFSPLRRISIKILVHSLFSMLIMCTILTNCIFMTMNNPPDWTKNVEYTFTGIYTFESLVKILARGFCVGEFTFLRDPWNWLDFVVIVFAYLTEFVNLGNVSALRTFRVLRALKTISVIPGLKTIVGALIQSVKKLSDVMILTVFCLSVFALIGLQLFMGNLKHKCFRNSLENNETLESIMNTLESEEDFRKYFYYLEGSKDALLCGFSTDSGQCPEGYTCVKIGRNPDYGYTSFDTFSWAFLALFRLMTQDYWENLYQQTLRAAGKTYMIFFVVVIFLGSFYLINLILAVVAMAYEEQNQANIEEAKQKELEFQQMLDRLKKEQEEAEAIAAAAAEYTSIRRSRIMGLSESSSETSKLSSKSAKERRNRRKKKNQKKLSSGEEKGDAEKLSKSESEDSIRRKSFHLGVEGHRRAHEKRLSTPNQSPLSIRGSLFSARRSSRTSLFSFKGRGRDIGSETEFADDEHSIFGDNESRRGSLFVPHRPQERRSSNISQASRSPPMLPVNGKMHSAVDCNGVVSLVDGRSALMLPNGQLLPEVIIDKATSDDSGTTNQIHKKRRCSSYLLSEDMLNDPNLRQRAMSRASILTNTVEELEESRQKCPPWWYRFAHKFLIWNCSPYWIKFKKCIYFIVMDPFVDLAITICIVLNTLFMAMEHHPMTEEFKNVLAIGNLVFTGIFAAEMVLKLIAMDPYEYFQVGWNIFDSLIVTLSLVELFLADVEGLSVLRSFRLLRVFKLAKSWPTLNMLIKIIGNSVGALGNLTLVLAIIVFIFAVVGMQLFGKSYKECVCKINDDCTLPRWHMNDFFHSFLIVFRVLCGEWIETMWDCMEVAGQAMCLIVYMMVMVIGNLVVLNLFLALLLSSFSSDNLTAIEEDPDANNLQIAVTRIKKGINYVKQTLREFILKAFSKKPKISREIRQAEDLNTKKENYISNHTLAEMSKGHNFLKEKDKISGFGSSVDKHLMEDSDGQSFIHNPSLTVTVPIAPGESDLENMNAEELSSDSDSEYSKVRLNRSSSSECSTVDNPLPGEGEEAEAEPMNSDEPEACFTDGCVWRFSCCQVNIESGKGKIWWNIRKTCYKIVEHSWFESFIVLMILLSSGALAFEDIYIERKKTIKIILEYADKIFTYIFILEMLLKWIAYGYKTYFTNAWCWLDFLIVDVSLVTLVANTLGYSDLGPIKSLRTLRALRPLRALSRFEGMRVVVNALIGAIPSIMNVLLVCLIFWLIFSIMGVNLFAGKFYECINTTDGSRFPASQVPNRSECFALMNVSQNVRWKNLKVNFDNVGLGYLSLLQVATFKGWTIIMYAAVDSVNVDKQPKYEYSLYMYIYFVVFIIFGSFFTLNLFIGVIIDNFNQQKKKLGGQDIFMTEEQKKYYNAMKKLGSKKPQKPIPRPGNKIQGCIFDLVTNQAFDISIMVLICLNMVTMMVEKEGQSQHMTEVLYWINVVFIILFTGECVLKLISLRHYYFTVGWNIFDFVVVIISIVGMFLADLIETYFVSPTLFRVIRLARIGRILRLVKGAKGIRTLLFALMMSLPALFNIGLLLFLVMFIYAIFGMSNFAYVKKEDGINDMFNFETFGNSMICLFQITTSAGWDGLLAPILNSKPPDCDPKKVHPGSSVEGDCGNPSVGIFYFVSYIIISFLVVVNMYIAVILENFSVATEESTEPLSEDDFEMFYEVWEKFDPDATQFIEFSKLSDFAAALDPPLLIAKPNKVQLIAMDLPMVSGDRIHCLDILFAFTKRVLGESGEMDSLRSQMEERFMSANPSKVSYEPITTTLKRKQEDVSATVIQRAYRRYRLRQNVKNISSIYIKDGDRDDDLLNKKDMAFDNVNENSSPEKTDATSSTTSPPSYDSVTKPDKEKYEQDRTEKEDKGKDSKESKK

hNav1.5 = hNav1.5 (Homo sapiens, UniProt Q14524); details: IonWorks Quattro, use-dependent block, hNav1.5; read-out: IWQ Use Nav1.5
Sequence of hNav1.5 (Q14524 whole entry, looked up): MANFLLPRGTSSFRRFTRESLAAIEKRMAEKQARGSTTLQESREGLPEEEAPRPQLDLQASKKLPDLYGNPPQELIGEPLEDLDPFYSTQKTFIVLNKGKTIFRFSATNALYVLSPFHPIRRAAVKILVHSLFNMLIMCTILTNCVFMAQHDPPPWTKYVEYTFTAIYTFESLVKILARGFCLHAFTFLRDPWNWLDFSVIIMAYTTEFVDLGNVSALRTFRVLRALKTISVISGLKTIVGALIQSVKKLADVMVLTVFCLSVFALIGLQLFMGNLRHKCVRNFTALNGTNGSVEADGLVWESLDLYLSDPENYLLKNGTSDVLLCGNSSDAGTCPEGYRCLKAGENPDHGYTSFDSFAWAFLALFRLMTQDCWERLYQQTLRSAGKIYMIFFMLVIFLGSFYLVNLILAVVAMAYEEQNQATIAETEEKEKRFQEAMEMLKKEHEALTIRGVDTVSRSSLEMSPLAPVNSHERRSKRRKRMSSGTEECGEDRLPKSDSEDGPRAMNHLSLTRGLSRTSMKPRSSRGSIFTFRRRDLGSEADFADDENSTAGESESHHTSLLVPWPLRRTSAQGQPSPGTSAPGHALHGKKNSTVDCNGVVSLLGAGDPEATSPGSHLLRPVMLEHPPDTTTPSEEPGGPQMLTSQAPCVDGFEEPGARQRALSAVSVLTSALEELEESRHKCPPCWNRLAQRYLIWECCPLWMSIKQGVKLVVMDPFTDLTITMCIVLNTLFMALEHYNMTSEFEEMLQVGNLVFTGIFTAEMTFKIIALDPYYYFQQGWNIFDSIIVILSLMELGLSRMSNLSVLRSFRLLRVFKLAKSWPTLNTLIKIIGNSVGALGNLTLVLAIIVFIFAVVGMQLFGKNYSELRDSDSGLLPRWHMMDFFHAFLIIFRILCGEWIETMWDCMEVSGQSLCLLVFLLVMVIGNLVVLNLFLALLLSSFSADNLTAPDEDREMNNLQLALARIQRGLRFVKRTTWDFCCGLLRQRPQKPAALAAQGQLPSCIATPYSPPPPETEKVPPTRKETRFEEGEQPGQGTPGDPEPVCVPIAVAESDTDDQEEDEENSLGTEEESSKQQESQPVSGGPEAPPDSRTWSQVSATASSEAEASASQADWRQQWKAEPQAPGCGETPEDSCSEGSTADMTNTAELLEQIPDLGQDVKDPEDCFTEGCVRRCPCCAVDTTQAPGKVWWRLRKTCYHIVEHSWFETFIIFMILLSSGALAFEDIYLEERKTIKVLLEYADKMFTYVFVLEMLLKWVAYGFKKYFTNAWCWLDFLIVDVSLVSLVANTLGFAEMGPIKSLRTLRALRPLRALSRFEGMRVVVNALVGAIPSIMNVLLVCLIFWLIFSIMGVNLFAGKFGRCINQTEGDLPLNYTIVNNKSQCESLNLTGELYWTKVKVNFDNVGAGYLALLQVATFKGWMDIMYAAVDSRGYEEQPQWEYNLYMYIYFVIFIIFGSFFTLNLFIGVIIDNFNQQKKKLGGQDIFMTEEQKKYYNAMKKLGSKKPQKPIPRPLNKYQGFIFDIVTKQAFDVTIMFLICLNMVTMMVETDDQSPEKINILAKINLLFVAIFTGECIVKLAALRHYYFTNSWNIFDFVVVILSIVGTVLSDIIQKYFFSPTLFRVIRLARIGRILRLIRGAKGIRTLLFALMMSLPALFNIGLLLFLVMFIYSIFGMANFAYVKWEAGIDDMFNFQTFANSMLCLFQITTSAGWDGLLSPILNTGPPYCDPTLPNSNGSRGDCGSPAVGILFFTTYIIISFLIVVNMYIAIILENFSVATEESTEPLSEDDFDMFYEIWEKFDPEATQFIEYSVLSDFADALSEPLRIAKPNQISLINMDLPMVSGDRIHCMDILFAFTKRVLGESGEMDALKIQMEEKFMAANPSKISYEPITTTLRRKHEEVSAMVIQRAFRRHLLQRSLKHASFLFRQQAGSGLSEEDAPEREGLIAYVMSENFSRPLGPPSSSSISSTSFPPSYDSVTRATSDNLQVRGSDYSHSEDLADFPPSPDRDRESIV

hNav1.3 = hNav1.3 (Homo sapiens, UniProt Q9NY46); details: IonWorks Quattro, use-dependent block, hNav1.3; read-out: IWQ Use Nav1.3

Structure (SMILES) | IC50 (hNav1.7) [µM] | IC50 (hNav1.5) [µM] | IC50 (hNav1.3) [µM]
CC[C@H](C)[C@@H]1NC(=O)[C@@H]2CSSC[C@@H]3NC(=O)[C@H](C(C)C)NC(=O)[C@H](CC(C)C)NC(=O)[C@H](CC(N)=O)NC(=O)[C@@H]4CCCN4C(=O)[C@H](CCCNC(=N)N)NC(=O)[C@H](CSSC[C@H](NC(=O)[C@@H](N)CC(=O)O)C(=O)N[C@@H](CC(C)C)C(=O)NCC(=O)N[C@@H](C)C(=O)N[C@@H](CCSC)C(=O)N[C@@H](CCCNC(=N)N)C(=O)N[C@@H](CCCCN)C(=O)N2)NC(=O)[C@H](CSSC[C@@H](C(=O)N[C@@H](CCCCN)C(=O)N[C@@H](Cc2ccc(O)cc2)C(=O)N[C@H](C(=O)N[C@@H](Cc2ccccc2)C(N)=O)C(C)C)NC(=O)[C@H](Cc2c[nH]c4ccccc24)NC(=O)[C@H](Cc2ccc(O)cc2)NC(=O)[C@H](Cc2c[nH]cn2)NC(=O)[C@H]([C@@H](C)O)NC(=O)[C@H](CCCNC(=N)N)NC(=O)[C@H](CO)NC3=O)NC(=O)[C@H](CCCCN)NC(=O)[C@H](CC(=O)O)NC(=O)[C@H](CC(N)=O)NC(=O)[C@H](CC(=O)O)NC(=O)[C@@H]2CCCN2C1=O [compound 765] (H-DCLGAMRKCIPDNDKCCRPNLVCSRTHYWCKYVF-NH2; disulfide 2-17, 9-23, 16-30) | 0.79 | 42 | 1.4
CC[C@H](C)[C@@H]1NC(=O)[C@@H]2CSSC[C@@H]3NC(=O)[C@H](C(C)C)NC(=O)[C@H](CC(C)C)NC(=O)[C@H](CC(N)=O)NC(=O)[C@@H]4CCCN4C(=O)[C@H](CCCNC(=N)N)NC(=O)[C@H](CSSC[C@H](NC(=O)[C@@H](N)CC(=O)O)C(=O)N[C@@H](CC(C)C)C(=O)NCC(=O)N[C@@H](C)C(=O)N[C@@H](CCSC)C(=O)N[C@@H](CCCNC(=N)N)C(=O)N[C@@H](CCCCN)C(=O)N2)NC(=O)[C@H](CSSC[C@@H](C(=O)N[C@@H](CCCCN)C(=O)N[C@@H](Cc2ccc(O)cc2)C(=O)N[C@H](C(=O)N[C@@H](Cc2ccccc2)C(N)=O)C(C)C)NC(=O)[C@H](Cc2c[nH]c4ccccc24)NC(=O)[C@H](CC(C)C)NC(=O)[C@H](Cc2c[nH]cn2)NC(=O)[C@H]([C@@H](C)O)NC(=O)[C@H](CCCNC(=N)N)NC(=O)[C@H](CO)NC3=O)NC(=O)[C@H](CCCCN)NC(=O)[C@H](CC(=O)O)NC(=O)[C@H](CC(N)=O)NC(=O)[C@H](CC(=O)O)NC(=O)[C@@H]2CCCN2C1=O [compound 766] (H-DCLGAMRKCIPDNDKCCRPNLVCSRTHLWCKYVF-NH2; disulfide 2-17, 9-23, 16-30) | 1.1 | 49.3 | 2.7
CC[C@H](C)[C@@H]1NC(=O)[C@@H]2CSSC[C@@H]3NC(=O)[C@H](C(C)C)NC(=O)[C@H](CC(C)C)NC(=O)[C@H](CC(N)=O)NC(=O)[C@@H]4CCCN4C(=O)[C@H](CCCNC(=N)N)NC(=O)[C@H](CSSC[C@H](NC(=O)[C@@H](N)CC(=O)O)C(=O)N[C@@H](CC(C)C)C(=O)NCC(=O)N[C@@H](C)C(=O)N[C@@H](CCSC)C(=O)N[C@@H](CCCNC(=N)N)C(=O)N[C@@H](CCCCN)C(=O)N2)NC(=O)[C@H](CSSC[C@@H](C(=O)N[C@@H](CCCCN)C(=O)N[C@@H](Cc2ccc(O)cc2)C(=O)N[C@H](C(=O)N[C@@H](Cc2ccccc2)C(N)=O)C(C)C)NC(=O)[C@H](Cc2c[nH]c4ccccc24)NC(=O)[C@H](CC(N)=O)NC(=O)[C@H](Cc2c[nH]cn2)NC(=O)[C@H]([C@@H](C)O)NC(=O)[C@H](CCCNC(=N)N)NC(=O)[C@H](CO)NC3=O)NC(=O)[C@H](CCCCN)NC(=O)[C@H](CC(=O)O)NC(=O)[C@H](CC(N)=O)NC(=O)[C@H](CC(=O)O)NC(=O)[C@@H]2CCCN2C1=O [compound 767] (H-DCLGAMRKCIPDNDKCCRPNLVCSRTHNWCKYVF-NH2; disulfide 2-17, 9-23, 16-30) | 1.7 | > 50 | 3.2
CC[C@H](C)[C@@H]1NC(=O)[C@@H]2CSSC[C@@H]3NC(=O)[C@H](C(C)C)NC(=O)[C@H](CC(C)C)NC(=O)[C@H](CC(N)=O)NC(=O)[C@@H]4CCCN4C(=O)[C@H](CCCNC(=N)N)NC(=O)[C@H](CSSC[C@H](NC(=O)[C@@H](N)CC(=O)O)C(=O)N[C@@H](CC(C)C)C(=O)NCC(=O)N[C@@H](C)C(=O)N[C@@H](CCSC)C(=O)N[C@@H](CCCNC(=N)N)C(=O)N[C@@H](CCCCN)C(=O)N2)NC(=O)[C@H](CSSC[C@@H](C(=O)N[C@@H](CCCCN)C(=O)N[C@@H](Cc2ccc(O)cc2)C(=O)N[C@H](C(=O)N[C@@H](Cc2ccccc2)C(N)=O)C(C)C)NC(=O)[C@H](Cc2c[nH]c4ccccc24)NC(=O)[C@H](CCCCN)NC(=O)[C@H](Cc2c[nH]cn2)NC(=O)[C@H]([C@@H](C)O)NC(=O)[C@H](CCCNC(N)=O)NC(=O)[C@H](CO)NC3=O)NC(=O)[C@H](CCCCN)NC(=O)[C@H](CC(=O)O)NC(=O)[C@H](CC(N)=O)NC(=O)[C@H](CC(=O)O)NC(=O)[C@@H]2CCCN2C1=O [compound 768] (H-DCLGAMRKCIPDNDKCCRPNLVCS[Cit]THKWCKYVF-NH2; disulfide 2-17, 9-23, 16-30) | 1.8 | 23.5 | 3.2
CC[C@H](C)[C@@H]1NC(=O)[C@@H]2CSSC[C@@H]3NC(=O)[C@H](C(C)C)NC(=O)[C@H](CC(C)C)NC(=O)[C@H](CC(N)=O)NC(=O)[C@@H]4CCCN4C(=O)[C@H](CCCNC(=N)N)NC(=O)[C@H](CSSC[C@H](NC(=O)[C@@H](N)CC(=O)O)C(=O)N[C@@H](CC(C)C)C(=O)NCC(=O)N[C@@H](C)C(=O)N[C@@H](CCSC)C(=O)N[C@@H](CCCNC(=N)N)C(=O)N[C@@H](CCCCN)C(=O)N2)NC(=O)[C@H](CSSC[C@@H](C(=O)N[C@@H](CCCCN)C(=O)N[C@@H](Cc2ccc(O)cc2)C(=O)N[C@H](C(=O)N[C@@H](Cc2ccccc2)C(N)=O)C(C)C)NC(=O)[C@H](Cc2c[nH]c4ccccc24)NC(=O)[C@H](CC(=O)O)NC(=O)[C@H](Cc2c[nH]cn2)NC(=O)[C@H]([C@@H](C)O)NC(=O)[C@H](CCCNC(=N)N)NC(=O)[C@H](CO)NC3=O)NC(=O)[C@H](CCCCN)NC(=O)[C@H](CC(=O)O)NC(=O)[C@H](CC(N)=O)NC(=O)[C@H](CC(=O)O)NC(=O)[C@@H]2CCCN2C1=O [compound 769] (H-DCLGAMRKCIPDNDKCCRPNLVCSRTHDWCKYVF-NH2; disulfide 2-17, 9-23, 16-30) | > 5 | 39 | > 5
CC[C@H](C)[C@@H]1NC(=O)[C@@H]2CSSC[C@@H]3NC(=O)[C@H](C(C)C)NC(=O)[C@H](CC(C)C)NC(=O)[C@H](CC(N)=O)NC(=O)[C@@H]4CCCN4C(=O)[C@H](CCCNC(=N)N)NC(=O)[C@H](CSSC[C@H](NC(=O)[C@@H](N)CC(=O)O)C(=O)N[C@@H](CC(C)C)C(=O)NCC(=O)N[C@@H](C)C(=O)N[C@@H](CCSC)C(=O)N[C@@H](CCCNC(=N)N)C(=O)N[C@@H](CCCCN)C(=O)N2)NC(=O)[C@H](CSSC[C@@H](C(=O)N[C@@H](CCCCN)C(=O)N[C@@H](Cc2ccc(O)cc2)C(=O)N[C@H](C(=O)N[C@@H](Cc2ccccc2)C(N)=O)C(C)C)NC(=O)[C@H](Cc2c[nH]c4ccccc24)NC(=O)[C@H](CCSC)NC(=O)[C@H](Cc2c[nH]cn2)NC(=O)[C@H]([C@@H](C)O)NC(=O)[C@H](CCCNC(=N)N)NC(=O)[C@H](CO)NC3=O)NC(=O)[C@H](CCCCN)NC(=O)[C@H](CC(=O)O)NC(=O)[C@H](CC(N)=O)NC(=O)[C@H](CC(=O)O)NC(=O)[C@@H]2CCCN2C1=O [compound 770] (H-DCLGAMRKCIPDNDKCCRPNLVCSRTHMWCKYVF-NH2; disulfide 2-17, 9-23, 16-30) | 1 | 45.4 | 4.1
CC[C@H](C)[C@@H]1NC(=O)[C@@H]2CSSC[C@@H]3NC(=O)[C@H](C(C)C)NC(=O)[C@H](CC(C)C)NC(=O)[C@H](CC(N)=O)NC(=O)[C@@H]4CCCN4C(=O)[C@H](CCCNC(=N)N)NC(=O)[C@H](CSSC[C@H](NC(=O)[C@@H](N)CC(=O)O)C(=O)N[C@@H](CC(C)C)C(=O)NCC(=O)N[C@@H](C)C(=O)N[C@@H](CCSC)C(=O)N[C@@H](CCCNC(=N)N)C(=O)N[C@@H](CCCCN)C(=O)N2)NC(=O)[C@H](CSSC[C@@H](C(=O)N[C@@H](CCCCN)C(=O)N[C@@H](Cc2ccc(O)cc2)C(=O)N[C@H](C(=O)N[C@@H](Cc2ccccc2)C(N)=O)C(C)C)NC(=O)[C@H](Cc2c[nH]c4ccccc24)NC(=O)[C@H](CCCCNC)NC(=O)[C@H](Cc2c[nH]cn2)NC(=O)[C@H]([C@@H](C)O)NC(=O)[C@H](CCCNC(=N)N)NC(=O)[C@H](CO)NC3=O)NC(=O)[C@H](CCCCN)NC(=O)[C@H](CC(=O)O)NC(=O)[C@H](CC(N)=O)NC(=O)[C@H](CC(=O)O)NC(=O)[C@@H]2CCCN2C1=O [compound 771] (H-DCLGAMRKCIPDNDKCCRPNLVCSRTH[Lys(Me)]WCKYVF-NH2; disulfide 2-17, 9-23, 16-30) | 1.6 | 40.1 | 1.8
CSCC[C@@H]1NC(=O)[C@H]([C@@H](C)O)NC(=O)CNC(=O)[C@H](CC(C)C)NC(=O)[C@@H](NC(=O)[C@@H](N)CC(=O)O)CSSC[C@@H]2NC(=O)[C@@H]3CSSC[C@@H](C(=O)N[C@@H](CCCCN)C(=O)N[C@@H](Cc4ccc(O)cc4)C(=O)N[C@H](C(=O)N[C@@H](Cc4ccccc4)C(N)=O)C(C)C)NC(=O)[C@H](Cc4c[nH]c5ccccc45)NC(=O)[C@H](CCCCN)NC(=O)[C@H](Cc4c[nH]cn4)NC(=O)[C@H]([C@@H](C)O)NC(=O)[C@H](CCCNC(=N)N)NC(=O)[C@H](CO)NC(=O)[C@H](CSSC[C@H](NC(=O)[C@H](CCCCN)NC(=O)[C@H](CCCNC(=N)N)NC1=O)C(=O)N[C@@H](CC(=O)O)C(=O)N1CCC[C@H]1C(=O)N[C@@H](CCC(=O)O)C(=O)N[C@@H](CC(N)=O)C(=O)N[C@@H](CC(=O)O)C(=O)N[C@@H](CCCCN)C(=O)N3)NC(=O)[C@H](C(C)C)NC(=O)[C@H](CC(C)C)NC(=O)[C@H](CC(N)=O)NC(=O)[C@@H]1CCCN1C(=O)[C@H](CCCNC(=N)N)NC2=O [compound 773] (H-DCLGTMRKCDPENDKCCRPNLVCSRTHKWCKYVF-NH2; disulfide 2-17, 9-23, 16-30) | 4.5 | 28.4 | 3.4
